Test: molar heat capacity at constant pressure
Conditions: 101.33 kPa

CC(C)(C)P(=O)(O)C(C)(C)C [di-tert-butylphosphinic acid]
Conditions	molar heat capacity at constant pressure [J/K/mol]
2.277 K, Crystal 2	0.028
2.67 K, Crystal 2	0.056
3.092 K, Crystal 2	0.169
3.71 K, Crystal 2	0.338
4.497 K, Crystal 2	0.591
5.284 K, Crystal 2	0.929
5.987 K, Crystal 2	1.352
6.633 K, Crystal 2	1.83
7.223 K, Crystal 2	2.337
7.813 K, Crystal 2	2.872
8.404 K, Crystal 2	3.548
9.078 K, Crystal 2	4.337
9.808 K, Crystal 2	5.322
10.74 K, Crystal 2	6.589
11.66 K, Crystal 2	7.941
12.56 K, Crystal 2	9.405
13.52 K, Crystal 2	10.93
14.44 K, Crystal 2	12.42
15.34 K, Crystal 2	13.94
16.24 K, Crystal 2	15.46
17.17 K, Crystal 2	17.04
18.15 K, Crystal 2	18.7
19.22 K, Crystal 2	20.47
20.32 K, Crystal 2	22.27
21.3 K, Crystal 2	23.93
22.28 K, Crystal 2	25.54
23.29 K, Crystal 2	27.17
24.3 K, Crystal 2	28.84
25.37 K, Crystal 2	30.69
26.44 K, Crystal 2	32.05
27.48 K, Crystal 2	33.54
28.6 K, Crystal 2	35.23
29.67 K, Crystal 2	36.78
30.74 K, Crystal 2	38.47
31.78 K, Crystal 2	40.07
32.82 K, Crystal 2	41.87
34.73 K, Crystal 2	45.11
35.2 K, Crystal 2	46.01
35.88 K, Crystal 2	47.28
36.58 K, Crystal 2	48.41
37.37 K, Crystal 1	47.62
38.02 K, Crystal 1	45.28
38.77 K, Crystal 1	45.25
39.59 K, Crystal 1	45.81
40.38 K, Crystal 1	46.52
41.16 K, Crystal 1	47.25
41.95 K, Crystal 1	48.01
42.74 K, Crystal 1	48.77
43.55 K, Crystal 1	49.65
44.37 K, Crystal 1	50.52
45.18 K, Crystal 1	51.33
46 K, Crystal 1	52.18
46.84 K, Crystal 1	53.05
47.66 K, Crystal 1	53.9
48.47 K, Crystal 1	54.74
49.31 K, Crystal 1	55.53
50.1 K, Crystal 1	56.32
50.97 K, Crystal 1	57.08
51.81 K, Crystal 1	57.9
52.63 K, Crystal 1	58.8
53.44 K, Crystal 1	59.56
54.29 K, Crystal 1	60.43
55.1 K, Crystal 1	61.3
55.94 K, Crystal 1	62.17
56.79 K, Crystal 1	63.08
57.66 K, Crystal 1	63.98
58.67 K, Crystal 1	65.08
59.34 K, Crystal 1	65.81
60.19 K, Crystal 1	66.74
61 K, Crystal 1	67.64
61.65 K, Crystal 1	68.31
62.63 K, Crystal 1	69.41
63.11 K, Crystal 1	69.95
63.56 K, Crystal 1	70.45
64.57 K, Crystal 1	71.58
65.27 K, Crystal 1	72.4
66 K, Crystal 1	73.16
66.9 K, Crystal 1	74.2
67.41 K, Crystal 1	74.76
67.94 K, Crystal 1	75.35
68.9 K, Crystal 1	76.37
69.57 K, Crystal 1	77.21
70.28 K, Crystal 1	77.94
70.64 K, Crystal 1	78.42
71.23 K, Crystal 1	79.24
71.62 K, Crystal 1	79.66
81.51 K, Crystal 1	92.05
82.47 K, Crystal 1	93.11
83.42 K, Crystal 1	94.18
84.38 K, Crystal 1	95.24
85.33 K, Crystal 1	96.41
86.29 K, Crystal 1	97.48
87.35 K, Crystal 1	98.65
88.31 K, Crystal 1	99.82
89.26 K, Crystal 1	100.89
90.32 K, Crystal 1	102.06
91.28 K, Crystal 1	103.23
92.34 K, Crystal 1	104.4
93.3 K, Crystal 1	105.58
94.36 K, Crystal 1	106.75
95.31 K, Crystal 1	107.81
96.27 K, Crystal 1	109.09
97.33 K, Crystal 1	110.16
98.39 K, Crystal 1	111.33
99.34 K, Crystal 1	112.39
100.41 K, Crystal 1	113.56
101.47 K, Crystal 1	114.74
102.53 K, Crystal 1	115.8
103.59 K, Crystal 1	116.97
104.55 K, Crystal 1	118.04
105.71 K, Crystal 1	119.32
106.78 K, Crystal 1	120.49
107.84 K, Crystal 1	121.56
108.9 K, Crystal 1	122.73
109.96 K, Crystal 1	123.9
111.02 K, Crystal 1	124.96
112.08 K, Crystal 1	126.24
113.14 K, Crystal 1	127.31
114.2 K, Crystal 1	128.48
115.27 K, Crystal 1	129.54
116.43 K, Crystal 1	130.61
117.5 K, Crystal 1	131.89
118.56 K, Crystal 1	133.17
119.72 K, Crystal 1	134.34
120.79 K, Crystal 1	135.3
121.95 K, Crystal 1	136.47
123.12 K, Crystal 1	137.64
124.18 K, Crystal 1	138.92
125.35 K, Crystal 1	139.99
126.52 K, Crystal 1	141.05
127.69 K, Crystal 1	142.22
128.85 K, Crystal 1	143.4
130.02 K, Crystal 1	144.57
131.19 K, Crystal 1	145.74
132.46 K, Crystal 1	147.02
133.53 K, Crystal 1	148.19
134.69 K, Crystal 1	149.04
135.75 K, Crystal 1	150.32
137.24 K, Crystal 1	151.28
138.41 K, Crystal 1	152.45
139.58 K, Crystal 1	153.52
141.06 K, Crystal 1	154.79
142.44 K, Crystal 1	156.07
143.93 K, Crystal 1	157.56
145.2 K, Crystal 1	158.74
146.69 K, Crystal 1	160.12
148.18 K, Crystal 1	161.4
149.88 K, Crystal 1	163
151.25 K, Crystal 1	164.38
152.74 K, Crystal 1	165.77
154.33 K, Crystal 1	167.04
155.61 K, Crystal 1	168.32
157.31 K, Crystal 1	169.71
158.79 K, Crystal 1	170.99
160.17 K, Crystal 1	172.37
162.09 K, Crystal 1	173.76
163.68 K, Crystal 1	175.25
164.95 K, Crystal 1	176.42
166.76 K, Crystal 1	177.81
168.24 K, Crystal 1	179.3
169.94 K, Crystal 1	180.79
171.64 K, Crystal 1	182.28
173.34 K, Crystal 1	183.77
174.83 K, Crystal 1	185.05
176.74 K, Crystal 1	186.86
182.79 K, Crystal 1	191.66
183.96 K, Crystal 1	192.72
185.13 K, Crystal 1	193.79
186.61 K, Crystal 1	195.06
188.1 K, Crystal 1	196.24
189.16 K, Crystal 1	197.3
190.75 K, Crystal 1	198.37
192.13 K, Crystal 1	199.65
193.62 K, Crystal 1	200.92
195.11 K, Crystal 1	202.2
196.49 K, Crystal 1	203.37
198.08 K, Crystal 1	204.65
199.57 K, Crystal 1	205.72
201.16 K, Crystal 1	207.1
202.65 K, Crystal 1	208.27
204.13 K, Crystal 1	209.55
205.72 K, Crystal 1	210.72
207.32 K, Crystal 1	212
209.02 K, Crystal 1	213.18
210.5 K, Crystal 1	214.45
212.31 K, Crystal 1	215.73
213.8 K, Crystal 1	217.01
215.5 K, Crystal 1	218.5
217.3 K, Crystal 1	219.78
218.89 K, Crystal 1	221.16
220.7 K, Crystal 1	222.76
222.5 K, Crystal 1	224.04
224.31 K, Crystal 1	225.53
225.9 K, Crystal 1	227.24
227.81 K, Crystal 1	228.62
229.72 K, Crystal 1	230.11
231.53 K, Crystal 1	231.82
233.23 K, Crystal 1	233.2
235.03 K, Crystal 1	234.69
236.84 K, Crystal 1	236.08
238.85 K, Crystal 1	237.57
240.66 K, Crystal 1	239.06
242.78 K, Crystal 1	240.77
244.7 K, Crystal 1	242.15
246.61 K, Crystal 1	243.75
248.52 K, Crystal 1	245.35
250.54 K, Crystal 1	247.05
252.55 K, Crystal 1	248.76
254.57 K, Crystal 1	250.25
256.59 K, Crystal 1	251.85
258.71 K, Crystal 1	253.44
260.62 K, Crystal 1	255.26
262.75 K, Crystal 1	257.07
264.98 K, Crystal 1	258.77
266.89 K, Crystal 1	260.69
269.22 K, Crystal 1	262.39
271.35 K, Crystal 1	264.63
273.37 K, Crystal 1	265.91
275.7 K, Crystal 1	267.4
277.82 K, Crystal 1	269.32
280.27 K, Crystal 1	271.45
282.18 K, Crystal 1	272.62
284.62 K, Crystal 1	274.96
286.96 K, Crystal 1	276.99
289.29 K, Crystal 1	279.01
291.63 K, Crystal 1	281.14
293.64 K, Crystal 1	283.17
295.98 K, Crystal 1	283.49

— the NIST ThermoML archive (doi:10.1016/j.tca.2010.12.008)
